From US7960614B2, “Plant transformation and selection” (Arborgen, LLC, priority 2003, dated 2011)

Experiments:
loblolly pine cell lines = assay: als/Ally selection on medium without casein hydrolysate, PCR verification (Example 28); format: cell-based, Pinus taeda; conditions: selection on 50 nM or 100 nm Ally, no casein hydrolysate; seven sublines tested by PCR
Description: In this example, five loblolly pine cell lines from four elite families were transformed with plasmids containing the als selectable marker, and selection was done on a sulfonylurea-containing selection medium modified to exclude casein hydrolysate. The five pine cell lines were initiated as described in Example 26, except that one of the five lines was an elite loblolly cross grown in an International Paper seed orchard in Georgia. The lines were cryopreserved, retrieved, and cultured as uniform suspensions as described in Example 26.
To prepare for gene transfer, polyester membrane supports were sterilized by autoclaving and placed in separate sterile Buchner funnels, and for each of six replicate plates per cell line, one to three milliliters of pine embryogenic suspension was pipetted onto each support such that the embryogenic tissue was evenly distributed. The liquid medium was suctioned from the tissues and each support bearing the embryogenic tissue was placed on gelled DCR3 preparation medium for Agrobacterium inoculation according to the methods described in U.S. Patent Publication No. 20020100083. […]

loblolly cell lines [1] = assay: pWVC23 transformants selected on Ally, checked on Geneticin and by PCR (Example 30); format: cell-based, Pinus taeda; conditions: Ally at either 50 or 100 nM
Method: Two loblolly cell lines were prepared for transformation using the same methods of Example 28, and co-cultivated with Agrobacterium tumefaciens transformed with pWVC23(FIG. 3), also as described in Example 28. Following eradication of Agrobacterium, each cell line was equally divided onto selection medium containing either Geneticin at 15 mg/L or Ally at either 50 or 100 nM. After putatively transformed sublines were grown to a sufficient size, nine sublines grown on Ally-containing media were transferred to Geneticin-containing media to check transformation status rapidly before PCR. 100% of these lines are able to grow on Geneticin-containing media. Five of these lines were then checked with PCR using the six primer pairs described in Example 28. 100% of these lines were confirmed postive transformants by PCR.

[2] = tested on: 13 loblolly and hybrid pine lines; assay: Growth on synthetic casein hydrolysate mixtures with Ally (FIG. 10); format: cell-based, Pinus taeda and hybrid pine; conditions: media with amino acid mixture in which branched chain amino acids are absent; Ally 0, 10, 30, or 50 mM
Method: The synthetic mixtures were tested in 13 loblolly and hybrid pine lines from 7 genetically diverse families. These lines were initiated and cryopreserved as described in Example 26, and were placed into uniform suspension cultures and plated onto the respective media treatments as described in Example 27. Media for the experiment comprised DCR2 maintenance media containing either 0.5 g/L casein hydrolysate, 0.5 g/L of one of the derived mixtures having the proportions shown in Table 24, or lacking both casein and the amino acid mixtures, and each of these treatments were provided with each of 0, 10, 30, or 50 mM treatments of the herbicide Ally® (commercially available from Dupont™).

[3] = tested on: 10 different loblolly and hybrid pine lines; assay: Growth on casein hydrolysate or mixture AA4 with 5-methyltryptophan (FIG. 11); format: cell-based, Pinus taeda and hybrid pine; conditions: 0, 3, 10, or 30 mg/L 5-methyltryptophan
Description: In another experiment, 10 different loblolly and hybrid pine lines were used, from eight genetically diverse families. These lines were initiated and cryopreserved as described in Example 26, and were placed into uniform suspension cultures and plated onto the respective media treatments as described in Example 26. Media for the experiment comprised DCR2 maintenance media containing either 0.5 g/L casein hydrolysate, 0.5 g/L of the derived mixture AA4 having the proportions shown in Table 24, or lacking both casein and the amino acid mixtures, and each of these treatments were provided with each of 0, 3, 10, or 30 mg/L treatments of 5-methyltryptophan (5MT). The vertical axis is the total weight increase in grams after the respective period.

loblolly cell lines [4] = assay: asa2 (pWVC33) selection on Geneticin, 5MT or AMT, PCR check (Example 32); format: cell-based, Pinus taeda; conditions: Geneticin 15 mg/L with casein hydrolysate, 5MT or AMT 30 mg/L with AA4
Method: Two loblolly cell lines were prepared for transformation using the method of Example 28, and co-cultivated with Agrobacterium tumefaciens transformed with pWVC33 (FIG. 7) as described in Example 28. Following eradication of Agrobacterium, each cell line was equally divided onto 6 plates each of 5 different selection media containing either casein hydrolysate and Geneticin at 15 mg/L, or amino acid mixture AA4 and either 5-methyltryptophan (5MT) at 30 or 50 mg/L or […] (AMT) at 30 or 50 mg/L. The results are show in FIG. 12. Putatively transformed sublines grow on Geneticin-containing plates and on both selection treatments where 30 mg/L of the methylated tryptophan selective analog was incorporated.

SMILES	false positive rate (loblolly pine cell lines)	lines confirmed positive transformants by PCR (loblolly cell lines [1]; five lines checked)	Ally-selected sublines able to grow on Geneticin-containing media (loblolly cell lines [1]; nine sublines)	growth of cells, FIG. 10 [2]	reduction in growth, FIG. 11 [3]	False positive Frequency (loblolly cell lines [4])	PCR confirmed positive (number of lines) (loblolly cell lines [4]; of 12, 8, 22 lines PCR tested)
COC(=O)c1ccccc1S(=O)(=O)NC(=O)Nc1nc(C)nc(OC)n1 [Ally]	14%	100%	100%	growth is retarded or stopped to a significant degree			
Cc1ccc2[nH]cc(C[C@H](N)C(=O)O)c2c1 [5MT30, 5-methyltryptophan]					only in the absence of tryptophan is it possible to obtain satisfactory reduction in growth	0.13	7
